Measured values published in US20250152577A1, “Pharmaceutical Composition of Ethidium Bromide and Use in Treating Cancer” (RUIJIN HOSPITAL, SHANGHAI JIAOTONG UNIVERSITY SCHOOL OF …, priority 2022, published 2025).

Test system: AOM+DSS-induced colorectal tumor
Assay: AOM+DSS-induced spontaneous colorectal cancer mouse model
Type: in vivo, mice
Settings: zalcitabine 33 mg/Kg alone, one month
Experimental: The classical intraperitoneal injection of AOM and the spontaneous colorectal cancer formation by three rounds of DSS were utilized to construct a tumor mouse model. Mice were treated with ethidium bromide (500 mg/L dissolved in drinking water) one week after completion of the construction. […] Mice were sacrificed and their colorectum was taken for photographic observation and fixed staining.
To further verify the above results, we then expanded the sample size to about 10-16 mice per group and still used the above AOM+DSS protocol to induce spontaneous colorectal cancer formation in mice. […] Meanwhile, since it has been reported that zalcitabine (ddC) can effectively impair the function of mitochondria (mainly the replication of mtDNA, similar to ethidium bromide), we added the experimental group of zalcitabine (33 mg/Kg) as a control.
In addition, in order to investigate in what way ethidium bromide clears tumors in mice, we also tested cell proliferation (FIGS. 8A and B) and apoptosis (FIG. 8C-F) in tumor tissues and normal tissues surrounding the tumors in different treatment groups. Among them, cell proliferation was detected by immunohistochemistry of Ki67-positive cells, and apoptosis was detected by immunofluorescence staining of cleaved Caspase3.
To further verify whether ethidium bromide is still effective against already existing larger tumors (advanced colorectal cancer), we set aside a group of control mice (started administration 5 weeks after the end of induction, equivalent to the control group of mice described above) to administer them by gavage (20 mg/Kg per day).
We investigated the mechanism of ethidium bromide-induced apoptosis in tumor cells. First, tumor tissues treated with ethidium bromide (mice shown in FIGS. 7 and 8, treated for 4 weeks at 20 mg/Kg per day) were subjected to SDS-Loading buffer boiling lysis and tested for associated signaling pathways by Western blotting.

`Nc1ccn([C@H]2CC[C@@H](CO)O2)c(=O)n1` [zalcitabine, reference compound] was tested, and the “effect on spontaneous colorectal tumors” value was “had no effect”.
